Measured values taken from patent US10441594B2, “Methods of making quinoa leachates and uses thereof” (priority 2013, dated 2019).

Assays:
[1] = system: diet-induced obese, hyperglycemic mice (C57BL/6J); test: Acute hypoglycemic study in diet-induced obese mice (fasting blood glucose); type: in vivo; details: 300 mg/kg oral
Procedure: An acute hypoglycemic study in diet-induced obese mice was performed as described previously (Cheng et al., Food Chem 135: 2994-3002, 2012, incorporated herein by reference). Briefly, five-week-old male C57Bl/6J mice (Jackson Labs), acclimated for 1 week with ad libitum access to chow (Purina, No. 5014) and water, and maintained on a very high-fat diet (VHFD) containing 60% fat-derived calories (D12492; Research Diets) for an additional 15 weeks to induce obesity, insulin resistance, and hyperglycemia. Food intake and body weight were monitored weekly. Following a 4-hour fasting period, fasting blood glucose (FBG) was measured using an AlphaTRAK® handheld glucometer (Abbott Labs, Inc.), and mice were randomly divided into FBG-balanced experimental groups.
Quinoa leachate (QL) was formulated in 70% Labrasol® (Gattefossé Corp., Paramus, N.J.). The biological activity of QL was tested using an oral ingestion of 0.25 ml per 50 g body weight of vehicle (70% Labrasol®) or QL (250 and 500 mg/kg) (n=7). Metformin® (300 mg/kg, dissolved in water) was administered as a positive control. FBG was reassessed 4 hours post-treatment. Mean FBG values before and after treatment were calculated for each group and compared using paired t-tests in Microsoft Excel. Additionally, final % FBG (final FBG/initial FBG×100) of each mouse was calculated 4 hours post-treatment. […]

[2] = system: diet-induced obese, hyperglycemic mice; details: 10 mg/kg body weight for 13 wk; cited from earlier work

| SMILES | hypoglycemic effect compared with control (1-way ANOVA, Dunnett's post hoc test) ([1]; 4 hours) | FBG levels 4 hours after oral administration versus before treatment (paired t-test) ([1]; positive control) | blood glucose levels [2] | reduction of adiposity compared with control [2] [%] |
| --- | --- | --- | --- | --- |
| CN(C)C(=N)N=C(N)N [Metformin] | significant hypoglycemic effects compared with control | significantly lowered FBG levels | – | – |
| CC(C)(O)CC[C@@H](O)[C@](C)(O)[C@H]1CC[C@@]2(O)C3=CC(=O)[C@@H]4C[C@@H](O)[C@@H](O)C[C@]4(C)[C@H]3CC[C@]12C [20-HE, 20-hydroxyecdysone] | – | – | significantly lowered blood glucose levels | 41 |
